Data from patent publication US12281102B2, “Inhibitors of APOL1 and methods of using same” (Vertex Pharmaceuticals Incorporated, priority 2020, dated 2025).
Like-named read-outs stand apart in the source and are kept apart here.

Molecular target: T1, G1 APOL1 (Homo sapiens, UniProt O14791, I384M/S342G)
T1 construct: expressed in transfected cells
T1 sequence (O14791 28-398 S342G/I384M): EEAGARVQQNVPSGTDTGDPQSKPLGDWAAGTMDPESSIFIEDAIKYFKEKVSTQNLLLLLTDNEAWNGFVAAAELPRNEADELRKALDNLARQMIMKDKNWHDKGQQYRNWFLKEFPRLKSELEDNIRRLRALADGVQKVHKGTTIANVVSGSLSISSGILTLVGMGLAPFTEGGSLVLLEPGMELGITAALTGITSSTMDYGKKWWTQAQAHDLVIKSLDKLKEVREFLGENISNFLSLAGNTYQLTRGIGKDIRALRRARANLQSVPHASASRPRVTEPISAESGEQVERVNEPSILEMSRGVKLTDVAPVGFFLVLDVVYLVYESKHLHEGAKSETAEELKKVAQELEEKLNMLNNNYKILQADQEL
Test: Acute APOL1 Thallium Assay with inducible stable clones of HEK 293 cells
Format: cell-based
Details: HEK 293 T-Rex inducible stable clone expressing G1 APOL1
Source text: Acute APOL1 Thallium Assay with Inducible Stable Clones of HEK 293 Cells
Apolipoprotein L1 (APOL1) proteins form potassium-permeable cation pores in the plasma membrane. APOL1 risk variants (G1 and G2) induce greater potassium flux than G0 in HEK293 cells. This assay exploits the permeability of thallium (T1+) through ligand-gated potassium channels. The dye produces a bright fluorescent signal upon binding to T1+ conducted through potassium channels. The intensity of the T1+ signal is proportional to the number of potassium channels in the open state. Therefore, it provides a functional indication of the potassium channel activities. During the initial dye-loading step, the T1+ indicator dye as an acetoxymethyl (AM) ester enters the cells through passive diffusion. Cytoplasm esterases cleave the AM ester and relieve its active thallium-sensitive form. The cells are then stimulated with T1+. The increase of fluorescence in the assay represents the influx of T1+ into the cell specifically through the potassium channel (i.e. through APOL1 pores), providing a functional measurement of potassium channel/pore activity. The Thallium assay is conducted with cells expressing G1 APOL1.
APOL1 Cell Line (HEK T-Rex Stable Inducible Cell Line)
• HEK T-Rex System • Tetracycline (Tet) inducible mammalian expression system. • Stably express the Tet repressor to regulate transcription. • Expression under the full-length CMV promoter. • APOL1 stable inducible cell line Clone used: G1 DC3.25 Tissue Culture Media Cell Culture Medium • DMEM+10% FBS+P/S+5 μg/mL blasticidin+1 μg/mL puromycin. • 500 mL DMEM+55 mL FBS+5 mL P/S+280 μL blasticidin S HCl (10 mg/mL)+56 μL puromycin (10 mg/mL). Cell Assay Medium • DMEM with 2% FBS+penicillin streptomycin. Reagents:
Instruments and Equipment • Nuaire cell culture hood, Cat. No. 540-600 • 37° C./5% CO2 incubator link to robotic arm, Liconic: STX110 • Molecular Devices FLIPR^Tetra High throughput cellular screening system, Cat. No. FT0324, Molecular Devices • ThermoFisher MultiDrop 384, Cat. No. 5840300 • Biotek Microfill, Cat. No. ASF1000A-4145 • BioRad TC10 cell counter, Cat. No. 145-0010 Assay Procedures Cells Scaled Up from Frozen Vials • APOL1 G1 3.25 (HEK293 T-Rex) frozen vials: 5 million cells per vial • Step 1, Day 1: Defrost frozen vial into T-225. • Step 2, Day 5: (when 85% confluent): Split one T-225 at 3×10^6 cells per flask. • Step 3, Day 8: Splits cells to set up for the assay plates as described below. Cell Culture
T-Rex APOL1 HEK cells are split twice per week to keep the confluence state below 85% of the culture flask surface area. Cells can be kept until passage 25.
• DMEM high glucose+10% FBS, +P/S, +5 μg/mL blasticidin, +1 μg/mL puromycin. • 500 mL DMEM, +55 mL FBS, +5 mL P/S, +280 μL blasticidin 10 mg/mL, +56 μL Puromycin 10 mg/mL. Assay Media • Opti-MEM reduced serum medium from Invitrogen. Day 1 Preparation of Cell Assay Plates • Culture medium is removed from the x cm^2 T-flask by aspiration. • The cell monolayer is rinsed with PBS 1× at room temperature. PBS is removed by aspiration. • Cells are trypsinized using Trypsin. • The flasks are incubated at room temperature for 2-3 minutes. • Complete DMEM medium is then added. Cell suspension is then transferred to a 50 mL Falcon polypropylene tube. • Cells are then counted using a BioRad TC10 cell counter and the required amount of cells are centrifuged at 1200 RPM for 5 minutes. Required amount is 1.3×10^6 cells/mL APOL1 T-Rex HEK cells. • The pellet is suspended in the assay medium. • Using the MultiDrop, add 20 μL to each well (corresponds to 26000 cells total per well) of a 384-well black, transparent, flat bottom Poly-D coated plate. • Tetracycline as prepared in the following section is added to the cells before plating to induce APOL1 expression. • Plates are left at room temperature for 20 to 30 minutes before incubation at 37° C. and 5% CO2. […]

[1] = read-out: Thallium Assay (IC50)

NCC(=O)NC[C@H]1C[C@@H](c2c(-c3ccc(F)cc3)[nH]c3c(F)cc(F)cc32)C1 [Compound 190]
IC50 [1]: < 0.25 µM

CN(CC(=O)NC[C@H]1C[C@@H](c2c(-c3ccc(F)cc3)[nH]c3c(F)cc(F)cc32)C1)S(C)(=O)=O [Compound 305]
IC50 [1]: > 1 µM

O=C(CCO)NC[C@H]1C[C@@H](c2c(-c3ccc(F)cc3)[nH]c3c(F)cc(F)cc32)C1 [Compound 206]
IC50 [1]: 0.25 to 1 µM

NC1CC(c2c(-c3ccc(F)cc3)[nH]c3c(F)cc(F)cc23)C1 (stereo not drawn) [Compound 14, 3-[5,7-difluoro-2-(4-fluorophenyl)-1H-indol-3-yl]cyclobutanamine]
IC50 (Thallium Assay (IC50)): < 0.25 µM

NCC(=O)N[C@H]1C[C@H](c2c(-c3ccc(F)cc3)[nH]c3c(F)cc(F)cc32)C1 [Compound 137]
IC50 (Thallium Assay (IC50)): < 0.25 µM

CC1(C)CCC(C(=O)N[C@H]2C[C@@H](c3c(-c4ccc(F)cc4)[nH]c4c(F)cc(F)cc43)C2)N1 (stereo partly drawn) [Compound 64]
IC50 [1]: > 1 µM

O=C1NCCC1C(=O)NC[C@H]1C[C@@H](c2c(-c3ccc(F)cc3)[nH]c3c(F)cc(F)cc32)C1 (stereo partly drawn) [Compound 303]
IC50 [1]: > 1 µM

O=C(CC1CCOCC1)N[C@H]1C[C@@H](c2c(-c3ccc(F)cc3)[nH]c3c(F)cc(F)cc32)C1 [Compound 34]
IC50 [1]: > 1 µM

O=C(CO)NC[C@H]1C[C@@H](c2c(-c3ccc(F)cc3)[nH]c3c(F)cc(F)cc32)C1 [Compound 210]
IC50 [1]: 0.25 to 1 µM

NC1CC(c2c(-c3ccc(C4CC4)cc3)[nH]c3ccc(F)cc23)C1 (stereo not drawn) [Compound 7, 3-[2-(4-cyclopropylphenyl)-5-fluoro-1H-indol-3-yl]cyclobutanamine]
IC50 [1]: 0.25 to 1 µM

N[C@H](C(=O)NC[C@H]1C[C@H](c2c(-c3ccc(F)cc3)[nH]c3c(F)cc(F)cc32)C1)C1CC1 [Compound 196]
IC50 [1]: < 0.25 µM

COCC(C)NS(=O)(=O)NC[C@H]1C[C@H](c2c(-c3ccc(F)cc3)[nH]c3c(F)cc(F)cc32)C1 (mixture of isomers) [Compound 342]
IC50 [1]: > 1 µM

O=S(=O)(NC[C@H]1C[C@H](c2c(-c3ccc(F)cc3)[nH]c3c(F)cc(F)cc32)C1)NC(CO)C(F)(F)F (stereo partly drawn) [Compound 358]
IC50 [1]: > 1 µM

C[C@@H](O)C(=O)NC[C@H]1C[C@H](c2c(-c3ccc(F)cc3)[nH]c3c(F)cc(F)cc32)C1 [Compound 211]
IC50 [1]: 0.25 to 1 µM

CC(C)(C)OC(=O)N1CC[C@H]1C(=O)NC[C@H]1C[C@H](c2c(-c3ccc(F)cc3)[nH]c3c(F)cc(F)cc32)C1 [Compound 216]
IC50 (Thallium Assay (IC50)): 0.25 to 1 µM

CC(C)C(CO)NCC1CC(c2c(-c3ccc(F)cc3)[nH]c3c(F)cc(F)cc23)C1 (stereo not drawn) [Compound 402]
IC50 [1]: > 1 µM

CN1CCC(CC(=O)NC[C@H]2C[C@@H](c3c(-c4ccc(F)cc4)[nH]c4c(F)cc(F)cc43)C2)CC1 [Compound 239]
IC50 [1]: > 1 µM

CN1CCC(CC(=O)N[C@H]2C[C@@H](c3c(-c4ccc(F)cc4)[nH]c4c(F)cc(F)cc43)C2)CC1 [Compound 52]
IC50 [1]: > 1 µM

NS(=O)(=O)CCCC(=O)NC[C@H]1C[C@@H](c2c(-c3ccc(F)cc3)[nH]c3c(F)cc(F)cc32)C1 [Compound 280]
IC50 [1]: > 1 µM

Cn1cc(S(=O)(=O)N[C@H]2C[C@@H](c3c(-c4ccc(F)cc4)[nH]c4c(F)cc(F)cc43)C2)cn1 [Compound 81]
IC50 [1]: > 1 µM

O=S(=O)(CCO)N[C@H]1C[C@H](c2c(-c3ccc(F)cc3)[nH]c3c(F)cc(F)cc32)C1 [Compound 146]
IC50 [1]: < 0.25 µM

N#CCS(=O)(=O)NC[C@H]1C[C@H](c2c(-c3ccc(F)cc3)[nH]c3c(F)cc(F)cc32)C1 [Compound 414]
IC50 [1]: 0.25 to 1 µM

CCC(C)S(=O)(=O)N[C@H]1C[C@H](c2c(-c3ccc(F)cc3)[nH]c3c(F)cc(F)cc32)C1 (stereo partly drawn) [Compound 152]
IC50 [1]: > 1 µM

CNCC(=O)N1CC(Cc2c(-c3ccc(F)cc3)[nH]c3c(F)cc(F)cc23)C1 [Compound 440]
IC50 [1]: 0.25 to 1 µM

CNC1(C(=O)N[C@H]2C[C@H](c3c(-c4ccc(F)cc4)[nH]c4c(F)cc(F)cc43)C2)CC1 [Compound 141]
IC50 [1]: 0.25 to 1 µM

CC[C@@H](N)C(=O)NC[C@H]1C[C@H](c2c(-c3ccc(F)cc3)[nH]c3c(F)cc(F)cc32)C1 [Compound 267]
IC50 [1]: > 1 µM

CS(=O)(=O)CCC(=O)N[C@H]1C[C@H](c2c(-c3ccc(F)cc3)[nH]c3c(F)cc(F)cc32)C1 [Compound 119]
IC50 [1]: > 1 µM

O=C(C1CC1)N1CCC(Cc2c(-c3ccc(F)cc3)[nH]c3c(F)cc(F)cc23)C1 (stereo not drawn) [Compound 445, Cyclopropyl-[3-[[5,7-difluoro-2-(4-fluorophenyl)-1H-indol-3-yl]methyl]pyrrolidin-1-yl]methanone]
IC50 [1]: > 1 µM

O=C(NC[C@H]1C[C@@H](c2c(-c3ccc(F)cc3)[nH]c3c(F)cc(F)cc32)C1)C1COC1 [Compound 226]
IC50 [1]: 0.25 to 1 µM

CC(NS(C)(=O)=O)C(=O)NC[C@H]1C[C@@H](c2c(-c3ccc(F)cc3)[nH]c3c(F)cc(F)cc32)C1 (mixture of isomers) [Compound 242]
IC50 [1]: > 1 µM

O=C(CC1CCCOC1)N[C@H]1C[C@@H](c2c(-c3ccc(F)cc3)[nH]c3c(F)cc(F)cc32)C1 (stereo partly drawn) [Compound 53]
IC50 [1]: > 1 µM

Cc1cccc(-c2[nH]c3c(F)cc(F)cc3c2C2CC(N)C2)c1 (mixture of isomers) [Compound 5, 3-[5,7-difluoro-2-(m-tolyl)-1H-indol-3-yl]cyclobutanamine]
IC50 [1]: 0.25 to 1 µM

NC1(C(=O)NC[C@H]2C[C@H](c3c(-c4ccc(F)cc4)[nH]c4c(F)cc(F)cc43)C2)CCC1 [Compound 244]
IC50 [1]: > 1 µM

O=S(=O)(N[C@H]1C[C@@H](c2c(-c3ccc(F)cc3)[nH]c3c(F)cc(F)cc32)C1)C1COC1 [Compound 83]
IC50 [1]: > 1 µM

NC(C(=O)NC[C@H]1C[C@H](c2c(-c3ccc(F)cc3)[nH]c3c(F)cc(F)cc32)C1)C(F)(F)F (stereo partly drawn) [Compound 233]
IC50 [1]: > 1 µM

CC(=O)NCC(=O)NC[C@H]1C[C@H](c2c(-c3ccc(F)cc3)[nH]c3c(F)cc(F)cc32)C1 [Compound 250]
IC50 [1]: > 1 µM

CC(=O)NCCNC1CC(c2c(-c3ccc(F)cc3)[nH]c3c(F)cc(F)cc23)C1 (stereo not drawn) [Compound 23]
IC50 [1]: > 1 µM

C[C@@H](O)[C@@H](CO)NS(=O)(=O)NC[C@H]1C[C@H](c2c(-c3ccc(F)cc3)[nH]c3c(F)cc(F)cc32)C1 [Compound 363]
IC50 [1]: > 1 µM

O=C(CC(=O)N1CCOCC1)N[C@H]1C[C@@H](c2c(-c3ccc(F)cc3)[nH]c3c(F)cc(F)cc32)C1 [Compound 56]
IC50 [1]: 0.25 to 1 µM

CC(C(=O)N[C@H]1C[C@H](c2c(-c3ccc(F)cc3)[nH]c3c(F)cc(F)cc32)C1)N(C)C (mixture of isomers) [Compound 111]
IC50 [1]: > 1 µM

O=C(NC[C@H]1C[C@H](c2c(-c3ccc(F)cc3)[nH]c3c(F)cc(F)cc32)C1)C1CCO1 (stereo partly drawn) [Compound 192]
IC50 [1]: < 0.25 µM

O=C(NC[C@H]1C[C@H](c2c(-c3ccc(F)cc3)[nH]c3c(F)cc(F)cc32)C1)[C@@H]1C[C@H](O)CN1 [Compound 254]
IC50 [1]: > 1 µM
